Where a name gives a salt, the structure may show the parent alone.
Key:
Nitrosomonas spp. = assay: Nitrification of ammonium in soil incubated at 25° C. (ammonium recovery, nitrate accumulation); details: soil 25° C.; for Concentration of nitrate nitrogen / Recovery of Ammonium Nitrogen: 200 ppm N
Protocol: In these evaluations, one hundred grams (100 g) of oven dry, silt loam field soil with low residual nitrogen is added to a 6×12 cm screw-capped glass jar for each sampling date to provide an optimum environment for nitrification.
Two replicates of each treatment-sampling date are established. The soil is adjusted to 50% water saturation with an aqueous solution of ammonium sulfate at 200 ppm N and the chemical to be tested as a nitrification inhibitor at rates of from 0.10 to 0.50 ppm.
Incubation is at either 25° C. or 38° C. for 0, 1, 2, 4, 7, 9, 12, 16 or 20 weeks. Inorganic N is extracted by adding 2M KCl (10:1 v/w) and shaking for one hour, allowing settling for fifteen minutes. A 10 ml aliquot from the supernatant is assayed for ammonium, nitrite and nitrate by standard steam distillation methods (AOAC, pp. 653-655). Nitrapyrin (0.5 ppm) is used as a nitrification inhibitor for comparison. Benzyl alcohol, acetone, and a non-N amended soil are run as controls and as a check on mineralization.
Nitrification: Ammonium recovery and nitrate accumulation are indicative of nitrification, and data obtained with test compounds are reported in Tables I and II.

Nitrobacter spp. = assay: Nitrite nitrogen in ammonium amended soil incubated at 25° C.; details: soil 25° C., 200 ppm N
Protocol: Determination of nitrite nitrogen and nitrate nitrogen in soil prepared in Example 1 above, which is amended with 200 ppm of nitrogen as aqueous ammonium sulfate, […], is determined using the nitrite and nitrate analysis of the American Organization of Analytical Chemists (AOAC pp. 653-655).

CC[C@@]1([C@@H]2O[C@@H]([C@H]3O[C@@](O)(CO)[C@H](C)C[C@@H]3C)C[C@@H]2C)CC[C@H]([C@]2(C)CC[C@]3(C[C@H](O)[C@@H](C)[C@@H]([C@@H](C)[C@@H](OC)[C@H](C)C(=O)O)O3)O2)O1 [Monensin sodium salt, Monensin]
Concentration of nitrate nitrogen (Nitrosomonas spp.; 0.10 ppm, week 0): 18 PPM
Concentration of nitrate nitrogen (Nitrosomonas spp.; 0.10 ppm, week 1): 17 PPM
Recovery of Ammonium Nitrogen (Nitrosomonas spp.; 0.10 ppm, week 1): 175 PPM
Concentration of nitrate nitrogen (Nitrosomonas spp.; 0.10 ppm, week 2): 17 PPM
Recovery of Ammonium Nitrogen (Nitrosomonas spp.; 0.10 ppm, week 2): 175 PPM
Concentration of nitrate nitrogen (Nitrosomonas spp.; 0.10 ppm, week 4): 45 PPM
Recovery of Ammonium Nitrogen (Nitrosomonas spp.; 0.10 ppm, week 4): 155 PPM
Concentration of nitrate nitrogen (Nitrosomonas spp.; 0.10 ppm, week 7): 199 PPM
Recovery of Ammonium Nitrogen (Nitrosomonas spp.; 0.10 ppm, week 7): 17 PPM
Concentration of nitrate nitrogen (Nitrosomonas spp.; 0.10 ppm, week 9): 220 PPM
Recovery of Ammonium Nitrogen (Nitrosomonas spp.; 0.10 ppm, week 9): 3 PPM
Concentration of nitrate nitrogen (Nitrosomonas spp.; 0.10 ppm, week 12): 206 PPM
Recovery of Ammonium Nitrogen (Nitrosomonas spp.; 0.10 ppm, week 12): 2 PPM
Concentration of nitrate nitrogen (Nitrosomonas spp.; 0.10 ppm, week 16): 213 PPM
Recovery of Ammonium Nitrogen (Nitrosomonas spp.; 0.10 ppm, week 16): 5 PPM
Specific inhibition of nitrification through activity against Nitrosomonas spp., in words (Nitrosomonas spp.; 0.1 to 0.5 ppm): appear to specifically inhibit nitrification through activity against Nitrosomonas spp.
Concentration of nitrate nitrogen (Nitrosomonas spp.; 0.25 ppm, week 0): 19 PPM
Concentration of nitrate nitrogen (Nitrosomonas spp.; 0.25 ppm, week 1): 22 PPM
Recovery of Ammonium Nitrogen (Nitrosomonas spp.; 0.25 ppm, week 1): 179 PPM
Concentration of nitrate nitrogen (Nitrosomonas spp.; 0.25 ppm, week 2): 21 PPM
Concentration of nitrate nitrogen (Nitrosomonas spp.; 0.25 ppm, week 4): 23 PPM
Concentration of nitrate nitrogen (Nitrosomonas spp.; 0.25 ppm, week 7): 28 PPM
Concentration of nitrate nitrogen (Nitrosomonas spp.; 0.25 ppm, week 9): 54 PPM
Recovery of Ammonium Nitrogen (Nitrosomonas spp.; 0.25 ppm, week 9): 157 PPM
Concentration of nitrate nitrogen (Nitrosomonas spp.; 0.25 ppm, week 12): 70 PPM
Recovery of Ammonium Nitrogen (Nitrosomonas spp.; 0.25 ppm, week 12): 124 PPM
Concentration of nitrate nitrogen (Nitrosomonas spp.; 0.25 ppm, week 16): 158 PPM
Recovery of Ammonium Nitrogen (Nitrosomonas spp.; 0.25 ppm, week 16): 74 PPM
Concentration of nitrate nitrogen (Nitrosomonas spp.; 0.25 ppm, week 20): 121 PPM
Recovery of Ammonium Nitrogen (Nitrosomonas spp.; 0.25 ppm, week 20): 21 PPM
Concentration of nitrate nitrogen (Nitrosomonas spp.; 0.50 ppm, week 0): 18 PPM
Concentration of nitrate nitrogen (Nitrosomonas spp.; 0.50 ppm, week 1): 18 PPM
Recovery of Ammonium Nitrogen (Nitrosomonas spp.; 0.50 ppm, week 1): 176 PPM
Concentration of nitrate nitrogen (Nitrosomonas spp.; 0.50 ppm, week 2): 21 PPM
Concentration of nitrate nitrogen (Nitrosomonas spp.; 0.50 ppm, week 4): 22 PPM
Concentration of nitrate nitrogen (Nitrosomonas spp.; 0.50 ppm, week 7): 23 PPM
Concentration of nitrate nitrogen (Nitrosomonas spp.; 0.50 ppm, week 9): 19 PPM
Concentration of nitrate nitrogen (Nitrosomonas spp.; 0.50 ppm, week 12): 22 PPM
Concentration of nitrate nitrogen (Nitrosomonas spp.; 0.50 ppm, week 16): 121 PPM
Recovery of Ammonium Nitrogen (Nitrosomonas spp.; 0.50 ppm, week 16): 110 PPM
Concentration of nitrate nitrogen (Nitrosomonas spp.; 0.50 ppm, week 20): 72 PPM
Recovery of Ammonium Nitrogen (Nitrosomonas spp.; 0.50 ppm, week 20): 143 PPM
Concentration of nitrite nitrogen (Nitrobacter spp.; 0.10 ppm, week 0): 9 ppm
Concentration of nitrite nitrogen (Nitrobacter spp.; 0.10 ppm, week 1): -4 ppm
Concentration of nitrite nitrogen (Nitrobacter spp.; 0.10 ppm, week 2): 4 ppm
Concentration of nitrite nitrogen (Nitrobacter spp.; 0.10 ppm, week 4): 11 ppm
Concentration of nitrite nitrogen (Nitrobacter spp.; 0.10 ppm, week 7): 7 ppm
Concentration of nitrite nitrogen (Nitrobacter spp.; 0.10 ppm, week 9): 16 ppm
Concentration of nitrite nitrogen (Nitrobacter spp.; 0.10 ppm, week 12): 18 ppm
Concentration of nitrite nitrogen (Nitrobacter spp.; 0.10 ppm, week 16): 7 ppm
Concentration of nitrite nitrogen (Nitrobacter spp.; 0.10 ppm, week 20): 11 ppm
Concentration of nitrite nitrogen (Nitrobacter spp.; 0.25 ppm, week 0): 6 ppm
Concentration of nitrite nitrogen (Nitrobacter spp.; 0.25 ppm, week 1): 3 ppm
Concentration of nitrite nitrogen (Nitrobacter spp.; 0.25 ppm, week 2): 6 ppm
Concentration of nitrite nitrogen (Nitrobacter spp.; 0.25 ppm, week 4): 7 ppm
Concentration of nitrite nitrogen (Nitrobacter spp.; 0.25 ppm, week 7): -4 ppm
Concentration of nitrite nitrogen (Nitrobacter spp.; 0.25 ppm, week 9): 17 ppm
Concentration of nitrite nitrogen (Nitrobacter spp.; 0.25 ppm, week 12): 30 ppm
Concentration of nitrite nitrogen (Nitrobacter spp.; 0.25 ppm, week 16): 3 ppm
Concentration of nitrite nitrogen (Nitrobacter spp.; 0.25 ppm, week 20): 90 ppm
Concentration of nitrite nitrogen (Nitrobacter spp.; 0.50 ppm, week 0): 6 ppm
Concentration of nitrite nitrogen (Nitrobacter spp.; 0.50 ppm, week 1): 5 ppm
Concentration of nitrite nitrogen (Nitrobacter spp.; 0.50 ppm, week 2): 6 ppm
Concentration of nitrite nitrogen (Nitrobacter spp.; 0.50 ppm, week 4): 0 ppm
Concentration of nitrite nitrogen (Nitrobacter spp.; 0.50 ppm, week 7): 2 ppm
Concentration of nitrite nitrogen (Nitrobacter spp.; 0.50 ppm, week 9): -7 ppm
Concentration of nitrite nitrogen (Nitrobacter spp.; 0.50 ppm, week 12): 4 ppm
Concentration of nitrite nitrogen (Nitrobacter spp.; 0.50 ppm, week 16): 2 ppm
Concentration of nitrite nitrogen (Nitrobacter spp.; 0.50 ppm, week 20): 22 ppm

Source: patent US4746349A, “Method and compositions for suppressing the nitrification of ammonium in plant growth medium” (American Cyanamid Company, priority 1986, dated 1988)
